A word on the IC50: it is the concentration needed to halve the response being measured.

The experiment concerns Aβ42 production. The experiment can be described thus: Quantification of Aβ peptide in culture of neurons from rat fetus brain (Aβ ELISA). In kind it is cell-based. Particulars: Neuron, 72 h; rat primary neuronal culture (cerebral cortex, embryonic day 18 Wistar rats); medium collected three days after addition of compound; Aβx-42 ELISA; read-out: Activity for reducing Aβ42 production IC50. As for the experimental part: Quantification of Aβ Peptide in Culture of Neurons from Rat Fetus Brain
(1) Rat Primary Neuronal Culture
Primary neuronal cultures were prepared from the cerebral cortex of embryonic day 18 Wistar rats (Charles River Japan, Yokohama, Japan). Specifically, the embryos were aseptically removed from pregnant rats under ether anesthesia. The brain was isolated from the embryo and immersed in an ice-cold L-15 medium (Invitrogen Corp. Cat #11415-064, Carlsbad, Calif., USA, or SIGMA L1518, for example). The cerebral cortex was collected from the isolated brain under a stereoscopic microscope. The cerebral cortex fragments collected were enzymatically treated in an enzyme solution containing 0.25% trypsin (Invitrogen Corp. Cat #15050-065, Carlsbad, Calif., USA) and 0.01% DNase (Sigma D5025, St. Louis, Mo., USA) at 37° C. for 30 minutes to disperse the cells. Here, the enzymatic reaction was stopped by adding inactivated horse serum to the solution. The enzymatically treated solution was centrifuged at 1,500 rpm for five minutes to remove the supernatant. 5 to 10 ml of a medium was added to the resulting cell mass. Neurobasal medium (Invitrogen Corp. Cat #21103-049, Carlsbad, Calif., USA) supplemented with 2% B27 supplement (Invitrogen Corp. Cat #17504-044, Carlsbad, Calif., USA), 25 μM 2-mercaptoethanol (2-ME, WAKO Cat #139-06861, Osaka, Japan), 0.5 mM L-glutamine (Invitrogen Corp. Cat #25030-081, Carlsbad, Calif., USA), and Antibiotics-Antimycotics (Invitrogen Corp. Cat #15240-062, Carlsbad, Calif., USA) was used as the medium (Neurobasal/B27/2-ME). However, the above Neurobasal medium not supplemented with 2-ME (Neurobasal/B27) was used for the assay. The cells were redispersed by mild pipetting of the cell mass to which the medium was added. The cell dispersion was filtered through a 40-μm nylon mesh (Cell Strainer, Cat #35-2340, Becton Dickinson Labware, Franklin Lakes, N.J., USA) to remove the remaining cell mass, and thus a neuronal cell suspension was obtained. The neuronal cell suspension was diluted with the medium and then plated in a volume of 100 μl/well at an initial cell density of 5×10^5 cells/cm^2 in a 96-well polystyrene culture plate pre-coated with poly-L or D-lysine (Falcon Cat #35-3075, Becton Dickinson Labware, Franklin Lakes, N.J., USA coated with poly-L-lysine using the method shown below, or BIOCOAT™ cell environments Poly-D-lysine cell ware 96-well plate, Cat #35-6461, Becton Dickinson Labware, Franklin Lakes, N.J., USA). Poly-L-lysine coating was carried out as follows. 100 μg/ml of a poly-L-lysine (SIGMA P2636, St. Louis, Mo., USA) solution was aseptically prepared with a 0.15 M borate buffer (pH 8.5). 100 μl/well of the solution was added to the 96-well polystyrene culture plate and incubated at room temperature for one or more hours or at 4° C. overnight or longer. The coated 96-well polystyrene culture plate was washed with sterile water four or more times, and then dried or rinsed with, for example, sterile PBS or medium, and used for cell plating. The plated cells were cultured in the culture plate at 37° C. in 5% […]-95% air for one day. Then, the total amount of the medium was replaced with a fresh Neurobasal™/B27/2-ME medium, and then the cells were cultured for further three days.
The drug was added to the culture plate on Day 4 of culture as follows. The total amount of the medium was removed from the wells, and 180 μl/well of Neurobasal medium not containing 2-ME and containing 2% B-27 (Neurobasal/B27) was added thereto. A solution of the test compound in dimethyl sulfoxide (hereinafter abbreviated as DMSO) was diluted with Neurobasal/B27 so that the initial concentration was at 10-fold of the final concentration. 20 μl/well of the dilution was added to and sufficiently mixed with the medium. The final DMSO concentration was 1% or less. Only DMSO was added to the control group.
The cells were cultured for three days after addition of the compound, and the total amount of the medium was collected. […]
(In an ELISA, binding on a coated surface is turned into a signal by an enzyme label.)
Turning to `COc1cc(/C=C2\OC(C)(C)CN([C@@H](C)c3ccc(F)cc3)C2=O)ccc1-n1cnc(C)c1` [Example 7, (Z)-4-[(S)-1-(4-fluorophenyl)ethyl]-2-[1-[3-methoxy-4-(4-methyl-1H-imidazol-1-yl)phenyl]methylidene]-6,6-dimethylmorpholin-3-one], the half-maximal inhibitory concentration (IC50) is 76 nM.

With `COc1cc(/C=C2\OC[C@H]3CCC[C@@H](c4cc(F)c(F)c(F)c4)N3C2=O)ccc1-n1cnc(C)c1` [Example 40], the concentration for half-maximal inhibition (IC50) came to 100 nM. The same measure for `COc1cc(/C=C2\OCCN(Cc3cc(F)c(F)c(F)c3)C2=O)ccc1-n1cnc(C)c1` [Example 1, (Z)-2-[1-[3-methoxy-4-(4-methyl-1H-imidazol-1-yl)phenyl]methylidene]-4-(3,4,5-trifluorobenzyl)morpholin-3-one]: 77 nM; for `COc1cc(/C=C2\OCCN([C@H](c3cc(F)c(F)c(F)c3)[C@@H](C)O)C2=O)ccc1-n1cnc(C)c1` [Example 30, (Z)-4-[(1R,2R)-2-hydroxy-1-(3,4,5-trifluorophenyl)propyl]-2-[1-[3-methoxy-4-(4-methyl-1H-imidazol-1-yl)phenyl]methylidene]morpholin-3-one]: 54 nM. In the case of `COc1cc(/C=C2\O[C@@H](C)CN(Cc3ccc(F)c(F)c3F)C2=O)ccc1-n1cnc(C)c1` [Example 5, (Z)-(S)-2-[1-[3-methoxy-4-(4-methyl-1H-imidazol-1-yl)phenyl]methylidene]-6-methyl-4-(2,3,4-trifluorobenzyl)morpholin-3-one], the concentration for half-maximal inhibition (IC50) was found to be 125 nM. The same measure for `Cc1cn(-c2ccc(/C=C3\O[C@@H](C)CN([C@H](c4cc(F)c(F)c(F)c4)[C@@H](C)O)C3=O)cc2F)cn1` [Example 74, (Z)-(S)-2-[1-[3-fluoro-4-(4-methyl-1H-imidazol-1-yl)phenyl]methylidene]-4-[(1R,2R)-2-hydroxy-1-(3,4,5-trifluorophenyl)propyl]-6-methylmorpholin-3-one]: 140 nM; for `COc1cc(/C=C2\O[C@@H](C)CN([C@H]3CCOc4ccccc43)C2=O)ccc1-n1cnc(C)c1` [Example 13, (Z)-(S)-4-[(S)-chroman-4-yl]-2-[1-[3-methoxy-4-(4-methyl-1H-imidazol-1-yl)phenyl]methylidene]-6-methylmorpholin-3-one]: 129 nM.

Regarding `COc1cc(/C=C2\OC(C)(C)CN([C@@H](C)c3ccnc(F)c3F)C2=O)ccc1-n1cnc(C)c1` [Example 58, (Z)-4-[(S)-1-(2,3-difluoropyridin-4-yl)ethyl]-2-[1-[3-methoxy-4-(4-methyl-1H-imidazol-1-yl)phenyl]methylidene]-6,6-dimethylmorpholin-3-one], the IC50 was 67 nM. The same measure for `COc1cc(/C=C2\OC[C@H]3COC[C@@H](c4ccc(Cl)cc4)N3C2=O)ccc1-n1cnc(C)c1` [Example 111, (6R,9aR)-6-(4-chlorophenyl)-3-[1-[3-methoxy-4-(4-methyl-1H-imidazol-1-yl)phenyl]-(Z)-methylidene]tetrahydro[1,4]oxadino[3,4-c]oxadine-4-one]: 129 nM. The same measure for `COc1cc(/C=C2\O[C@@H](C)CN([C@@H](C)c3ccc(F)nc3F)C2=O)ccc1-n1cnc(C)c1` [Example 22, (Z)-(S)-4-[(S)-1-(2,6-difluoropyridin-3-yl)ethyl]-2-[1-[3-methoxy-4-(4-methyl-1H-imidazol-1-yl)phenyl]methylidene]-6-methylmorpholin-3-one]: 30 nM.

Take `COc1cc(/C=C2\O[C@@H](C)CN([C@@H](C)c3ccnc(Cl)c3)C2=O)ccc1-n1cnc(C)c1` [Example 51, (Z)-(S)-4-[(S)-1-(2-chloropyridin-4-yl)ethyl]-2-[1-[3-methoxy-4-(4-methyl-1H-imidazol-1-yl)phenyl]methylidene]-6-methylmorpholin-3-one]: the IC50 worked out at 67 nM. The same measure for `COc1cc(/C=C2\O[C@@H](C)CN([C@@H](C)c3ccnc(Cl)c3F)C2=O)ccc1-n1cnc(C)c1` [Example 52, (Z)-(S)-4-[(S)-1-(2-chloro-3-fluoropyridin-4-yl)ethyl]-2-[1-[3-methoxy-4-(4-methyl-1H-imidazol-1-yl)phenyl]methylidene]-6-methylmorpholin-3-one]: 86 nM; for `Cc1cn(-c2ccc(/C=C3\C[C@H](C)CN([C@H](c4cc(F)c(F)c(F)c4)[C@@H](C)O)C3=O)cc2F)cn1` [Example 84, (E)-(S)-3-{1-[3-fluoro-4-(4-methyl-1H-imidazol-1-yl)phenyl]methylidene}-1-[(1R,2R)-2-hydroxy-1-(3,4,5-trifluorophenyl)propyl]-5-methylpiperidin-2-one]: 37 nM; for `COc1cc(/C=C2\O[C@@H](C)CN([C@H](c3ccc(F)c(F)c3)[C@@H](C)O)C2=O)ccc1-n1cnc(C)c1` [Example 34, (Z)-(S)-4-[(1R,2R)-1-(3,4-difluorophenyl)-2-hydroxypropyl]-2-[1-[3-methoxy-4-(4-methyl-1H-imidazol-1-yl)phenyl]methylidene]-6-methylmorpholin-3-one]: 23 nM.

The values above are taken from patent publication US7618960B2, “Morpholine type cinnamide compound” (Eisai R&D Management Co., Ltd., priority 2005, dated 2009).
